Values quoted from earlier work in article PMC11064828 (Journal of Nuclear Medicine, 2024).

Legend:
CAIX [1] = conditions: 2 clinical trials of metastatic ccRCC
Excerpt: (§1) As a direct transcriptional target of hypoxia-inducible factor 1α, CAIX is overexpressed in several hard-to-treat tumors, including ccRCC, CRC, breast cancer, and PDAC ([2],[9]–[11]), making it a promising therapeutic target. However, to date, the transition of CAIX-targeting therapies to clinical settings has been poor ([7],[13]).

CAIX [2] = conditions: phase 1 study of advanced solid tumors
Excerpt: as §1, with “([7],[13]). Several small-molecule inhibitors of CAs, including CAIX, have been developed ([7],[13]).” for “([7],[13]).”

Row | Compound | dose-limiting toxicity (CAIX [1]) | objective responses (CAIX [2]) | tolerability (CAIX [2])
1 | G250 to the β-emitter [^177Lu]Lu: anti-CAIX monoclonal antibody G250 conjugated to the β-emitter [^177Lu]Lu | dose-limiting myelotoxicity |  | 
2 | NS(=O)(=O)c1ccc(NC(=O)Nc2ccc(F)cc2)cc1 [SLC-0111] |  | no objective responses | well tolerated
